Source: patent US20230064809A1, “SUBSTITUTED AMINOQUINOLONES AS DGKALPHA INHIBITORS FOR IMMUNE ACTIVATION” (Bayer Aktiengesellschaft, priority 2019, published 2023)

molecular target: T1, DGKα (Homo sapiens, UniProt P23743); experiment: not given; conditions: literature report; cited from earlier work
Target sequence in this assay (P23743 whole entry, species assumed): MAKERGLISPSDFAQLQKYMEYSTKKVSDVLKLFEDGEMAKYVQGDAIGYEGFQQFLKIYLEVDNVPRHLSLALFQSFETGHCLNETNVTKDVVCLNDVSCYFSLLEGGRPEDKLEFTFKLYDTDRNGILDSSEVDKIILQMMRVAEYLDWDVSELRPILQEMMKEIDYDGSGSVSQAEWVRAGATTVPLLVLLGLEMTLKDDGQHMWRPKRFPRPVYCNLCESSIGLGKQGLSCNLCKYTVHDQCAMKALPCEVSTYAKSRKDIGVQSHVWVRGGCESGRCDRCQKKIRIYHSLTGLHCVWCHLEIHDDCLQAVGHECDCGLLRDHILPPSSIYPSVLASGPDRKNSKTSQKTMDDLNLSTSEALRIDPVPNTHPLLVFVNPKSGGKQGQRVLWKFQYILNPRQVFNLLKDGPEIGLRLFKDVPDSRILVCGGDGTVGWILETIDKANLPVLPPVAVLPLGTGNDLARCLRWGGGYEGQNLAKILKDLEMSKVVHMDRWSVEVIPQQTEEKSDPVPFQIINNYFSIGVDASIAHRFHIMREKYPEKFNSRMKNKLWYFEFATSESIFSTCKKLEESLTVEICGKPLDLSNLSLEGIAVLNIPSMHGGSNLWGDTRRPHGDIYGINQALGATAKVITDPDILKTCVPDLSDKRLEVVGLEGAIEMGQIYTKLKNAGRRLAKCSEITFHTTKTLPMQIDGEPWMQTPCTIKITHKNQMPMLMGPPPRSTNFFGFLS

Row | SMILES | inhibitory activity on DGKα
1 | Cc1ccc2c(C(=O)CN3CCN(C(=O)c4ccco4)CC3)c(C)[nH]c2c1 [AMB639752] | micromolar
2 | O=C1/C(=C\C=C\c2ccco2)SC(=S)N1NS(=O)(=O)c1ccccc1 [CU-3] | sub-micromolar

molecular target: T1, DGKα; experiment: Human DGKα kinase activity inhibition assay (ADP-Glo); type: biochemical; parameters: made in house; host or cells: Sf9 insect cells, baculovirus; conditions: in vitro, C-terminally FLAG-tagged recombinant full-length human DGKα, 1,2-dioleoyl-sn-glycerol substrate, ADP-Glo readout
Protocol: Human DGKα Kinase Activity Inhibition Assay. Human DGKα inhibitory activity of compounds of the present invention was quantified employing the human DGKα kinase activity assay as described in the following paragraphs. In essence, the enzyme activity was measured by quantification of the adenosine-di-phosphate (ADP) generated as a co-product of the enzyme reaction via the “ADP-Glo™ Kinase Assay” kit from the company Promega. This detection system works as follows: In a first step the ATP not consumed in the kinase reaction is quantitatively converted to […] (“ADP-Glo-reagent”), then the adenylate cyclase is stopped and the ADP generated in the kinase reaction converted to ATP, which subsequently generates in a luciferase-based reaction a glow-luminescence signal (“Kinase Detection Reagent”). C-terminally FLAG-tagged, recombinant full-length human DGKα (expressed in baculovirus infected insect cells, purified using anti-Flag pulldown and size exclusion chromatography as described below, DGKa_hu_1) was used as enzyme. As substrate for the kinase 1,2-dioleoyl-sn-glycerol, reconstituted in octyl-β-D-glucopyranoside micelles, was used. For the preparation of the micelles, 1 volume of a 16.1 mM solution of 1,2-dioleoyl-sn-glycerol (Avanti, Cat. #08001-25G) in chloroform was slowly evaporated using a nitrogen stream. Subsequently, 22.55 volumes of a 510 mM solution of octyl-β-D-glucopyranoside (Sigma-Aldrich, Cat. #08001-10G) in 50 mM MOPS buffer (pH 7.4) were added, and the mixture was sonicated in an ultrasonic bath for 20 s. Then 35 volumes of 50 mM MOPS buffer (pH 7.4) were added to yield a solution of 0.28 mM 1,2 dioleoyl-sn-glycerol and 200 mM octyl-β-D-glucopyranoside, which was aliquoted, flash-frozen in liquid nitrogen, and stored at −20° C. until use. For each experiment, a fresh aliquot was quickly thawed and diluted 24-fold with aqueous assay buffer (described below) containing 95.7 μM adenosine triphosphate (Promega) to yield a 1.67-fold concentrated substrate solution. For the assay 50 nl of a 100-fold concentrated solution of the test compound in dimethyl sulfoxide (DMSO, Sigma) was pipetted into either a white 1536-well or a white low-volume 384-well microtiter plate (both Greiner Bio-One, Frickenhausen, Germany). […] The concentration of DGK a was adjusted depending of the activity of the enzyme lot and was chosen appropriate to have the assay in the linear range, a typical concentration is about 0.1 nM. The reaction was stopped by the addition of 2.5 μl of “ADP-Glo-reagent” (1 to 1.5 diluted with water) and the resulting mixture was incubated at 22° C. for 1 h to convert the ATP no t consumed in the kinase reaction completely to […]. […] The amount of emitted light was taken as a measure for the amount of ADP generated and thereby for the activity of the DGKα.
Target sequence in this assay (P23743 with tags, fused parts or gaps): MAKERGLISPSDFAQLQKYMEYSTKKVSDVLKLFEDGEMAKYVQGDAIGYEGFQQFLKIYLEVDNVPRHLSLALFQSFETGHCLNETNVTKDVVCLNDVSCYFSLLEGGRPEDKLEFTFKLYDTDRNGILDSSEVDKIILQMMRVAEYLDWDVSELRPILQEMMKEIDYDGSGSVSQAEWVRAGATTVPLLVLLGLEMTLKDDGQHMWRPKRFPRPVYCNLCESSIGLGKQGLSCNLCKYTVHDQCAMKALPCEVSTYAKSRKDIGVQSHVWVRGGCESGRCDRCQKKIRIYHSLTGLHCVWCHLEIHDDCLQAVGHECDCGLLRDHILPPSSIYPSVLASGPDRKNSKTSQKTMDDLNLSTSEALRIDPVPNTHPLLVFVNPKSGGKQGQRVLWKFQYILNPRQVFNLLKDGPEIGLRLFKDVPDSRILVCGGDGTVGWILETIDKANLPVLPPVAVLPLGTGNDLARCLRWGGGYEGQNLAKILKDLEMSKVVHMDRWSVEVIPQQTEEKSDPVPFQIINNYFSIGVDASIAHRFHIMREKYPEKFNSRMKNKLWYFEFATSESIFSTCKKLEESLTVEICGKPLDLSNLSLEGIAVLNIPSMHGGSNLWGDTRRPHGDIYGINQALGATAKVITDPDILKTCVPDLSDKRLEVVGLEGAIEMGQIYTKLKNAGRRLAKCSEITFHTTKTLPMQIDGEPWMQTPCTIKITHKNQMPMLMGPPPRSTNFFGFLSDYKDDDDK

Row | SMILES | IC50 [nM]
3 | Cn1c(=O)c(C(N)=O)c(N2CCC3(CN(c4ccc(Cl)cc4)C3)C2)c2ccccc21 [Example 26, 4-[2-(4-chlorophenyl)-2,6-diazaspiro[3.4]octan-6-yl]-1-methyl-2-oxo-1,2-dihydroquinoline-3-carboxamide] | 42
4 | Cn1c(=O)c(C#N)c(N2CCC3(CCN(c4cccc(OC(F)(F)F)c4)C3)CC2)c2ccccc21 [Example 12, 1-methyl-2-oxo-4-{2-[3-(trifluoromethoxy)phenyl]-2,8-diazaspiro[4.5]decan-8-yl}-1,2-dihydroquinoline-3-carbonitrile] | 50
5 | COc1ccc(N2CCC3(CCN(c4c(C#N)c(=O)n(C)c5ccccc45)CC3)C2)cc1 [Example 15, 4-[2-(4-methoxyphenyl)-2,8-diazaspiro[4.5]decan-8-yl]-1-methyl-2-oxo-1,2-dihydro-quinoline-3-carbonitrile] | 91
6 | Cn1c(=O)c(C#N)c(N2CCC3(CCN(c4ccccc4)C3)CC2)c2ccccc21 [Example 1, 1-methyl-2-oxo-4-(2-phenyl-2,8-diazaspiro[4.5]decan-8-yl)-1,2-dihydroquinoline-3-carbonitrile] | 34
7 | COc1ccccc1N1CCC2(CCN(c3c(C#N)c(=O)n(C)c4ccccc34)CC2)C1 [Example 10, 4-[2-(2-methoxyphenyl)-2,8-diazaspiro[4.5]decan-8-yl]-1-methyl-2-oxo-1,2-dihydro-quinoline-3-carbonitrile] | 18
8 | CN(C)c1ccccc1N1CCC2(CCN(c3c(C#N)c(=O)n(C)c4ccccc34)CC2)C1 [Example 13, 4-{2-[2-(dimethylamino)phenyl]-2,8-diazaspiro[4.5]decan-8-yl}-1-methyl-2-oxo-1,2-dihydroquinoline-3-carbonitrile] | 51
9 | CN(C)c1ccc(N2CC3(CCN(c4c(C#N)c(=O)n(C)c5ccccc45)C3)C2)cc1 [Example 21, 4-{2-[4-(dimethylamino)phenyl]-2,6-diazaspiro[3.4]octan-6-yl}-1-methyl-2-oxo-1,2-dihydroquinoline-3-carbonitrile] | 163
10 | CN1CCN(c2ccc3c(N4CCC5(CCN(c6cccc(Cl)c6)C5)CC4)c(C#N)c(=O)n(C)c3c2)CC1 [Example 33, 4-[2-(3-chlorophenyl)-2,8-diazaspiro[4.5]decan-8-yl]-1-methyl-7-(4-methylpiperazin-1-yl)-2-oxo-1,2-dihydroquinoline-3-carbonitrile] | 1170
11 | Cn1c(=O)c(C#N)c(N2CC3(CCCN(c4ccc(F)cc4)C3)C2)c2ccccc21 [Example 16, 4-[6-(4-fluorophenyl)-2,6-diazaspiro[3.5]nonan-2-yl]-1-methyl-2-oxo-1,2-dihydro-quinoline-3-carbonitrile] | 15
12 | CN(C)c1ccc(N2CC3(CCN(c4c(C(N)=O)c(=O)n(C)c5ccccc45)C3)C2)cc1 [Example 28, 4-{2-[4-(dimethylamino)phenyl]-2,6-diazaspiro[3.4]octan-6-yl}-1-methyl-2-oxo-1,2-dihydroquinoline-3-carboxamide] | 1720
